Test results published in patent publication US12599580B2, “Composition comprising a lipid compound, a triglyceride, and a surfactant, and methods of using the same” (BASF AS, priority 2013, dated 2026).
Structures can show the parent of a compound that is named as a salt. Where two headings read alike, the source gives them in different places. One block for each compound: values may come before it.

Tests used:
[1] = Phase 1 study, individual variability in pharmacokinetics at 600 mg; type: in vivo, healthy subjects (humans); settings: single oral dose 600 mg, composition No. 27, healthy male subjects
Description: Phase 1 study of 2-((5Z,8Z,11Z,14Z,17Z)-icosa-5,8,11,14,17-pentaenyloxy)butanoic acid (API) assessing the safety, tolerability, PK, and pharmacodynamics (PD) has been performed in healthy individuals. Each dose group consisted of 6 healthy subjects. The initial dose API received was 5 mg, and the maximum dose was 600 mg. Data presented here are with an API dose of 600 mg. This formulation included Tween 20 (40 wt %), Miglyol 812N (30 wt %) and API (30 wt %). The API was mixed with other components of the composition as described under “General procedures.” The formulation for this example corresponds to composition No. 27 of Example 1. A minimum of 10 days intervene before each dose escalation. Escalating doses were administered to the groups sequentially.

[2] = Solubility of the API in water; type: physicochemical
Description: (§1) Thus, low bioavailability is expected.

[3] = system: APOE*3Leiden.CETP transgenic mouse model; settings: cited from earlier work
[4] = Phase 1 study, pharmacokinetics in male and female, 300 mg b.i.d for 14 days; type: in vivo, healthy subjects (humans); settings: for AUC / Cmax: human, plasma, oral, composition No. 27; for AUC: read-out: Geometric mean AUC0-τ; for Cmax: read-out: Geometric mean Cmax
Description: Phase 1 study of 2-((5Z,8Z,11Z,14Z,17Z)-icosa-5,8,11,14,17-pentaenyloxy)butanoic acid (API) assessing the safety, tolerability, PK, and pharmacodynamics (PD) has been performed in healthy individuals. Each dose group consisted of 6 healthy subjects. An API dose of 300 mg b.i.d was given orally to males and females for 14 consecutive days. The formulation given included Tween 20 (40 wt %), Miglyol 812N (30 wt %) and API (30 wt %). The API was mixed with other components in the formulation as described under “General procedures.” The formulation of this example corresponds to composition No. 27 of Example 1.

[5] = Phase 1 study, escalating single oral doses 5 to 600 mg; type: in vivo, healthy subjects (humans); settings: single oral doses between 5 to 600 mg, healthy subjects
Description: Phase 1 study of 2-((5Z,8Z,11Z,14Z,17Z)-icosa-5,8,11,14,17-pentaenyloxy)butanoic acid (API) assessing the safety, tolerability, PK, and pharmacodynamics (PD) has been performed in healthy individuals. Each dose group consisted of 6 healthy subjects. The initial dose of API received was 5 mg, and the maximum dose of API was 600 mg. The API was mixed with other components of the formulations according to Table 20, the premix was filled into capsules and administered orally to humans.
A minimum of 10 days intervene before each dose escalation. Escalating doses are administered to the groups sequentially.

[6] = Phase 1 study, food effect (fed and fasted state), single oral dose; type: in vivo, healthy subjects (humans); settings: human, plasma; for AUC(0-t): composition No. 27 in capsules, healthy male subjects, read-out: AUC0-24 h
Description: Phase 1 study of 2-((5Z,8Z,11Z,14Z,17Z)-icosa-5,8,11,14,17-pentaenyloxy)butanoic acid (API) assessing the safety, tolerability, PK, and pharmacodynamics (PD) have been performed in healthy individuals. Each group consisted of 6 healthy subjects. The formulation according to the present disclosure included Tween 20 (40 wt %), Miglyol 812N (30 wt %) and API (30 wt %). The API was mixed with other components of the composition as described under “General procedures.” The formulation of this example corresponds to composition No. 27 of Example 1. The premix was filled into capsules and administered orally to humans.

[7] = Permeability of the API; type: in vitro ADME
Description: as §1

[8] = Solubility of salts in surfactants and co-solvents; type: physicochemical
Description: Salts prepared from monovalent counter ions are all highly soluble in surfactants according to the present disclosure and excellent pre-concentrates and SMEDDS can be prepared.

[9] = male, po, 100 mg, Fasted, single oral dose 100 mg API
[10] = male, po, 100 mg, Fed, single oral dose 100 mg API

% CV (relative variability) of AUC0-24 [1]: ~15% | % CV (relative variability) of Cmax [1]: approximately 10% | solubility in water [2]: low solubility in water | AUC Ratio E/M ([4]; Day 14, 300 mg b.i.d): 0.937 | Cmax Ratio E/M ([4]; Day 14, 300 mg b.i.d): 1.12 | AUC ([4]; Female, Day 14, 300 mg b.i.d): 75800 ng·h/mL | Cmax ([4]; Female, Day 14, 300 mg b.i.d): 15800 ng/mL | AUC ([4]; Male, Day 14, 300 mg b.i.d): 80900 ng·h/mL | Cmax ([4]; Male, Day 14, 300 mg b.i.d): 14100 ng/mL | increase of exposure (Cmax and AUC0-24) with dose [5]: higher than dose-proportional manner | Tmax ([6]; both sexes, oral, healthy male and female subjects receiving single doses, read-out: mean Tmax): 1 to 2 h | Cmax [6, 9]: 2800 ng/mL | half-life [6, 9]: 6.36 ± 3.13 h | AUC(0-t) [6, 9]: 14000 ng·h/mL | Tmax ([6]; male, po, 100 mg, Fasted, single oral dose 100 mg API, read-out: Tmax): 1.4 h | Cmax [6, 10]: 2700 ng/mL | half-life [6, 10]: 6.29 ± 2.13 h | AUC(0-t) [6, 10]: 15000 ng·h/mL | Tmax ([6]; male, po, 100 mg, Fed, single oral dose 100 mg API, read-out: Tmax): 3.6 h | permeability [7]: low permeability
SMILES: CC/C=C\C/C=C\C/C=C\C/C=C\C/C=C\CCCCOC(CC)C(=O)O (stereo not shown) [API, 2-((5Z,8Z,11Z,14Z,17Z)-icosa-5,8,11,14,17-pentaenyloxy)butanoic acid]
HDL cholesterol as compared to a control [3]: increased | atherosclerotic lesion areas in the aorta as compared to a control [3]: decreased | total cholesterol as compared to a control [3]: decreased | gender differences in pharmacokinetics (Cmax, AUC0-24) ([4]; 300 mg b.i.d, males and females, 14 consecutive days): no gender differences in pharmacokinetics

solubility in surfactants and co-solvents [8]: medium solubility
SMILES: CC/C=C\C/C=C\C/C=C\C/C=C\C/C=C\CCCCOC(CC)C(=O)O (stereo not shown) [magnesium salt, magnesium 2-((5Z,8Z,11Z,14Z,17Z)-icosa-5,8,11,14,17-pentaenyloxy)butanoate]
